Here are results for 24 molecules from patent publication US20240360165A1, “INHIBITORS OF CYCLIN DEPENDENT KINASE 7 (CDK7)” (Syros Pharmaceuticals, Inc., priority 2016, published 2024).

Where two headings read alike, the source gives them in different places.

The test system of one assay is HCC70 cells. The assay is described as follows: Inhibition of proliferation of HCC70 cells (CyQUANT Direct Cell Proliferation Assay, 72 hour). The assay is classed as cell-based, human. Conditions: read-out: Inhibition of Proliferation of HCC70 Cells (calculated IC50). The method, then: HCC70 cells are a cell line derived from human triple negative breast cancer. […] Known CDK inhibitors dinaciclib or N-((1S,3R)-3-((5-chloro-4-(1H-indol-3-yl) pyrimidin-2-yl)amino)cyclohexyl)-5-((E)-4-(dimethylamino)but-2-enamido)picolinamide and triptolide were used as positive controls. […] The cells were cultured at 37° C. in a humidified chamber in the presence of 5% CO2. Proliferation assays were conducted over a 72 hour time period. CyQUANT® Direct Cell Proliferation Assay (Life Technologies, Chicago, IL USA) was used to assess the anti-proliferative effects of the compounds following manufacturer's directions and utilizing the reagents supplied with the CyQUANT® Direct Cell kit.

Another assay deals with CDK2/Cyclin E1 complex (Homo sapiens, UniProt P24941). Put plainly: CDK2 inhibition assay (Caliper/LabChip EZ Reader kinase assay). The assay is classed as biochemical. The settings on record: Table 1; CDK2/Cyclin E1 0.5 nM, ATP 2 mM, 35 min at 27° C. The method in brief:
(§1)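 Caliper/LabChip EZ Reader mobility-shift assays. CDK9/Cyclin T1 at 8 nM with 2 μM 5-FAM-CDK9tide peptide and 10 mM MgCl2; CDK2/Cyclin E1 at 0.5 nM with 2 μM 5-FAM-CDK7tide and 2 mM MgCl2.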

For assay [1], the target named is T1, CDK12 (aa686-1082)/Cyclin K complex (Homo sapiens, UniProt Q9NYV4).
T1 construct: CDK12 (aa686-1082)/Cyclin K complex
Put plainly: CDK12 inhibition assay (Caliper/LabChip EZ Reader kinase assay). The settings on record: Table 1; CDK12 (aa686-1082)/Cyclin K 50 nM, ATP 2 mM, 3 hr at 27° C. The assay is classed as biochemical.

The target of a further assay is CDK9/Cyclin T1 complex (Homo sapiens, UniProt P50750). Put plainly: CDK9 inhibition assay (Caliper/LabChip EZ Reader kinase assay). The settings on record: Table 1; CDK9/Cyclin T1 8 nM, ATP 2 mM, 15 min at 27° C. In kind it is biochemical. The gist of the method: as §1
Assay [2] has as its target CDK7/Cyclin H/MAT1 complex (Homo sapiens, UniProt P50613). Put plainly: CDK7 inhibition assay (Caliper/LabChip EZ Reader kinase assay). In kind it is biochemical. Conditions: Table 1; CDK7/Cyclin H/MAT1 6 nM, ATP 2 mM, 35 min at 27° C. The gist of the method:
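A Perkin Elmer Caliper/LabChip EZ Reader (Waltham, MA) platform served as the basis for this CDK7 kinase inhibition assay. The work was carried out by Biortus Biosciences, located in Jiangyin, Jiangsu Province, P.R. of China. Each CDK studied had its own kinase assay, and compounds were evaluated for their ability to block CDK7 activity.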

Sequence of CDK7/Cyclin H/MAT1 complex (P50613 whole entry, species assumed): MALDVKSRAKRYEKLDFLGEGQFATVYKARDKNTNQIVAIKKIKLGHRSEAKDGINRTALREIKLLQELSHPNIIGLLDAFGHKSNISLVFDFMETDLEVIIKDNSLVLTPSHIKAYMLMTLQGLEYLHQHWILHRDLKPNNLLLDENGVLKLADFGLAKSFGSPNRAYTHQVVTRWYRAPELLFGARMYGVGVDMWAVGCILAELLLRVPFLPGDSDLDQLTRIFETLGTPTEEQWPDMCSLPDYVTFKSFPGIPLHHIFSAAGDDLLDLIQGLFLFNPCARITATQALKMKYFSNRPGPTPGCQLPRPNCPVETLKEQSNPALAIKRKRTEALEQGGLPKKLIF
Sequence of CDK7/Cyclin H/MAT1 complex (P51946 whole entry partner, species assumed): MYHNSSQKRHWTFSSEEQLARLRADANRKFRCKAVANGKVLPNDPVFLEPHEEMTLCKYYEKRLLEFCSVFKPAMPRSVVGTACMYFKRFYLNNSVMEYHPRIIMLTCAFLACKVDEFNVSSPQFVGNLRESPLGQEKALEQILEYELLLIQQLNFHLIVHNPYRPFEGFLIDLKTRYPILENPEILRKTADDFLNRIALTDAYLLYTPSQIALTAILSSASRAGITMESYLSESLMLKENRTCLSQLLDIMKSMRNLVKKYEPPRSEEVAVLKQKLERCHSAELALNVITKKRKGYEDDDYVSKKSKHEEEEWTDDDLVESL
Sequence of CDK7/Cyclin H/MAT1 complex (P51948 whole entry partner, species assumed): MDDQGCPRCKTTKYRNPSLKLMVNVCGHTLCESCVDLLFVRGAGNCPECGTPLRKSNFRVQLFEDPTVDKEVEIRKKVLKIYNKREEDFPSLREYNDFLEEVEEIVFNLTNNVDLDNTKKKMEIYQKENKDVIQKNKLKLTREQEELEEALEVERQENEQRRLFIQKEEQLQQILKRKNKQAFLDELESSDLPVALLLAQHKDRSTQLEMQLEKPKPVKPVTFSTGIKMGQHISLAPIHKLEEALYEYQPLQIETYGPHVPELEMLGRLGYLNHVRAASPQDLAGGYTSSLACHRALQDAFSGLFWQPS
T1 sequence (Q9NYV4 686-1082, species assumed): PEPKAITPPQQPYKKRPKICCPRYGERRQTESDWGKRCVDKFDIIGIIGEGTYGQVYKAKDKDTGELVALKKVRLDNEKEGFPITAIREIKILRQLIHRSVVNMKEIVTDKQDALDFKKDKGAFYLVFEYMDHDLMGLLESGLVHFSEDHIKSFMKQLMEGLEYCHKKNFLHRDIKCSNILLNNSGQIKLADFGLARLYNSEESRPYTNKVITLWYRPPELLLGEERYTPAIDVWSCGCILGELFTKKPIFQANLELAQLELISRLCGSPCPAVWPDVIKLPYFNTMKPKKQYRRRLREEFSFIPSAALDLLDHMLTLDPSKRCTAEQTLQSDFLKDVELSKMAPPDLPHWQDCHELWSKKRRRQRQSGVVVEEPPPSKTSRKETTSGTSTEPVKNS
T1 sequence (O75909 whole entry partner, species assumed, the tested form may be a part): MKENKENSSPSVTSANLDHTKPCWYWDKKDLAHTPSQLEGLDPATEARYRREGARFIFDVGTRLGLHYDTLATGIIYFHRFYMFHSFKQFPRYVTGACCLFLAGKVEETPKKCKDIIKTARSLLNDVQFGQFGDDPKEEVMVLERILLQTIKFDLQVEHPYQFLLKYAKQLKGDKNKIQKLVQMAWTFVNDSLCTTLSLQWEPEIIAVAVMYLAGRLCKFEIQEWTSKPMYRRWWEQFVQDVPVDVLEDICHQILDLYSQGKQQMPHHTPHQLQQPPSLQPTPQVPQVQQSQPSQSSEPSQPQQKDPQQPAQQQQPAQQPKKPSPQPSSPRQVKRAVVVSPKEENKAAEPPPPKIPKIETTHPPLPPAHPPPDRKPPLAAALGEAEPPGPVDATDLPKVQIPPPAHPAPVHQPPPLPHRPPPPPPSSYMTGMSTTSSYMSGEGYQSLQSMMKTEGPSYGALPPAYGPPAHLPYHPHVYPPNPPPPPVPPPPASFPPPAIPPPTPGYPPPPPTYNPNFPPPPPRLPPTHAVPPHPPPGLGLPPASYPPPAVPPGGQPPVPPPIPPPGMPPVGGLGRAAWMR
Sequence of CDK9/Cyclin T1 complex (P50750 whole entry, species assumed): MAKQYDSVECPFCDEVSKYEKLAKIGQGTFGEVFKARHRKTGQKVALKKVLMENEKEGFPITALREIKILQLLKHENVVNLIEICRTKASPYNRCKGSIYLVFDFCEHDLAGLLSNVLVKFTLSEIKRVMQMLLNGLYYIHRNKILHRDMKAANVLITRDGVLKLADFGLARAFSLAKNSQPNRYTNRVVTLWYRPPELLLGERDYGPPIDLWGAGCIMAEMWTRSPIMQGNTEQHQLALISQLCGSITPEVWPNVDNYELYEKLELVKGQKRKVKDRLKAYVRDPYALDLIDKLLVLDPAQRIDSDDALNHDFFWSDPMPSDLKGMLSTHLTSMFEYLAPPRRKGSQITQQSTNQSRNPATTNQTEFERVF
Sequence of CDK9/Cyclin T1 complex (O60563 whole entry partner, species assumed): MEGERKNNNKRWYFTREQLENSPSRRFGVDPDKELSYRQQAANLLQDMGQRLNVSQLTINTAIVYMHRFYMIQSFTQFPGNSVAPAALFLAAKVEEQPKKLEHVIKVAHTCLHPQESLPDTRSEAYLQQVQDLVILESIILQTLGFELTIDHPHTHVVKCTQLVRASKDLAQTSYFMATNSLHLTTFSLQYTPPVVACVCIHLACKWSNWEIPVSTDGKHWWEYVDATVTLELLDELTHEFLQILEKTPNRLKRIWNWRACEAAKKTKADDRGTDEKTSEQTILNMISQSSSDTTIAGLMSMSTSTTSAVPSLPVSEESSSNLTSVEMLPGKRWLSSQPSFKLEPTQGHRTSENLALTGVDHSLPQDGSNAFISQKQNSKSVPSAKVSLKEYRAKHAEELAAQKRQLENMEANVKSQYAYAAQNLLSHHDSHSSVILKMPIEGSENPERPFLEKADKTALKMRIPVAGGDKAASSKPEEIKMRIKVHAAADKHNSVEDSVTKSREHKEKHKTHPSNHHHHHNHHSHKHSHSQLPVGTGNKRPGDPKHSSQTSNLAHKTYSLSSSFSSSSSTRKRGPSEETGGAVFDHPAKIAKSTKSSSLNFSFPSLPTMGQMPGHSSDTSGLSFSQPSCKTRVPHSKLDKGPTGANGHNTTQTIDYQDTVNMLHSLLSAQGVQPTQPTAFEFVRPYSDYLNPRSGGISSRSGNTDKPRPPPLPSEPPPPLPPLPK

As to `COC1CCN(C(=O)c2ccc3c(-c4nc(N[C@H]5CCCNC5)ncc4C(F)(F)F)c[nH]c3c2)C1` (single isomer, unassigned) [Compound 281], the IC50 was 0.1 to 1 µM with HCC70 cells (Homo sapiens, HCC70, 72 h); 0.2 to 5 µM at CDK2/Cyclin E1 complex; 0.2 to 5 µM in assay [1]; 0.2 to 5 µM at CDK9/Cyclin T1 complex; under 0.02 µM in assay [2].

With `O=C(c1ccc2c(-c3nc(N[C@H]4CCCNC4)ncc3C(F)(F)F)c[nH]c2c1)N1CC[C@](O)(C(F)(F)F)C1` (single isomer, unassigned) [Compound 299], the IC50 was 1 to 5 µM with HCC70 cells (Homo sapiens, HCC70, 72 h); 0.2 to 5 µM on CDK2/Cyclin E1 complex; 0.2 to 5 µM in assay [1]; 0.2 to 5 µM against CDK9/Cyclin T1 complex; under 0.02 µM in assay [2].

Take `O=C(c1ccc2c(-c3nc(N[C@H]4CCCNC4)ncc3C(F)(F)F)c[nH]c2c1)N1CC[C@@](O)(C(F)(F)F)C1` (single isomer, unassigned) [Compound 300]: the IC50 is 0.1 to 1 µM in the assay on HCC70 cells (Homo sapiens, HCC70, 72 h); 0.2 to 5 µM against CDK2/Cyclin E1 complex; 0.2 to 5 µM in assay [1]; 0.2 to 5 µM against CDK9/Cyclin T1 complex; under 0.02 µM in assay [2].

Take `CC[C@@]1(O)CCN(C(=O)c2ccc3c(-c4nc(N[C@H]5CCCNC5)ncc4C(F)(F)F)c[nH]c3c2)C1` (single isomer, unassigned) [Compound 309]: the IC50 in the assay on HCC70 cells (Homo sapiens, HCC70, 72 h) was 1 to 5 µM; at CDK2/Cyclin E1 complex, over 5 µM; in assay [1] it was 0.2 to 5 µM; against CDK9/Cyclin T1 complex it was over 5 µM; in assay [2], 0.02 to 0.2 µM.

As for `CC[C@]1(O)CCN(C(=O)c2ccc3c(-c4nc(N[C@H]5CCCNC5)ncc4C(F)(F)F)c[nH]c3c2)C1` (single isomer, unassigned) [Compound 347], the IC50 in the assay on HCC70 cells (Homo sapiens, HCC70, 72 h) was 0.1 to 1 µM; against CDK2/Cyclin E1 complex it was over 5 µM; in assay [1], 0.2 to 5 µM; against CDK9/Cyclin T1 complex, over 5 µM; in assay [2], 0.02 to 0.2 µM.

Consider `CP(C)(=O)c1cccc2c(-c3nc(N[C@H]4CCCNC4)ncc3C(F)(F)F)c[nH]c12` (single isomer, unassigned) [Compound 353], for which the IC50 in the assay with HCC70 cells (Homo sapiens, HCC70, 72 h) is under 0.1 µM; against CDK2/Cyclin E1 complex, 0.2 to 5 µM; in assay [1] it was 0.2 to 5 µM; against CDK9/Cyclin T1 complex it was over 5 µM; in assay [2], under 0.02 µM.

For `CC1CCNCC1Nc1ncc(C(F)(F)F)c(-c2c[nH]c3ccccc23)n1` (single isomer, unassigned) [Compound 372], the IC50 was 0.1 to 1 µM in the assay on HCC70 cells; 0.2 to 5 µM at CDK2/Cyclin E1 complex; 0.2 to 5 µM in assay [1]; 0.2 to 5 µM at CDK9/Cyclin T1 complex; 0.02 to 0.2 µM in assay [2].

Regarding `CC1CCNCC1Nc1ncc(C(F)(F)F)c(-c2c[nH]c3ccccc23)n1` (single isomer, unassigned) [Compound 373], the IC50 in the assay on HCC70 cells is 1 to 5 µM; against CDK2/Cyclin E1 complex, over 5 µM; in assay [1] it was over 5 µM; on CDK9/Cyclin T1 complex, over 5 µM; in assay [2] it was 0.02 to 0.2 µM.

With `N#Cc1ccc2c(-c3nc(N[C@@H]4CCC5(CCC5)NC4)ncc3C(F)(F)F)c[nH]c2c1` (single isomer, unassigned) [Compound 377], the IC50 was 0.1 to 1 µM with HCC70 cells (Homo sapiens, HCC70, 72 h); over 5 µM against CDK2/Cyclin E1 complex; 0.2 to 5 µM in assay [1]; 0.2 to 5 µM against CDK9/Cyclin T1 complex; under 0.02 µM in assay [2].

`N#Cc1ccc2c(-c3nc(N[C@H]4CCC5(CCC5)NC4)ncc3C(F)(F)F)c[nH]c2c1` (single isomer, unassigned) [Compound 378]: the IC50 was 1 to 5 µM with HCC70 cells (Homo sapiens, HCC70, 72 h); over 5 µM against CDK2/Cyclin E1 complex; over 5 µM in assay [1]; over 5 µM against CDK9/Cyclin T1 complex; 0.02 to 0.2 µM in assay [2].

With `CCc1cnc(N[C@H]2CCCNC2)nc1-c1c[nH]c2c(S(C)(=O)=O)cccc12` [Compound 269, (S)-5-ethyl-4-(7-(methylsulfonyl)-1H-indol-3-yl)-N-(piperidin-3-yl)pyrimidin-2-amine], the IC50 was 0.1 to 1 µM in the assay on HCC70 cells (Homo sapiens, HCC70, 72 h); 0.2 to 5 µM against CDK2/Cyclin E1 complex; 0.2 to 5 µM in assay [1]; 0.2 to 5 µM against CDK9/Cyclin T1 complex; under 0.02 µM in assay [2].

Regarding `CO[C@H]1CCN(C(=O)c2ccc3c(-c4nc(N[C@H]5CCCNC5)ncc4C(F)(F)F)c[nH]c3c2)C1` [Compound 280], the IC50 was 0.1 to 1 µM in the assay on HCC70 cells; over 5 µM on CDK2/Cyclin E1 complex; 0.2 to 5 µM in assay [1]; over 5 µM at CDK9/Cyclin T1 complex; 0.02 to 0.2 µM in assay [2].

In the case of `N#Cc1cc(-c2ccc3c(-c4nc(N[C@H]5CCCNC5)ncc4C(F)(F)F)c[nH]c3c2)ccc1O` [Compound 315], the IC50 in the assay on HCC70 cells is 1 to 5 µM; in assay [1] it was 0.2 to 5 µM; in assay [2] it was 0.02 to 0.2 µM.

On to `FC(F)(F)c1cnc(NC2CCCNC2)nc1-c1c[nH]c2cc(C=Cc3ccccc3)ccc12` (stereo not drawn) [Compound 317], for which the IC50 was 1 to 5 µM in the assay with HCC70 cells (Homo sapiens, HCC70, 72 h); 0.2 to 5 µM in assay [1]; 0.02 to 0.2 µM in assay [2].

Consider `FC(F)(F)c1cc2[nH]cc(-c3ccc4c(-c5nc(N[C@H]6CCCNC6)ncc5C(F)(F)F)c[nH]c4c3)c2cn1` [Compound 319], for which the IC50 is 1 to 5 µM with HCC70 cells, 0.2 to 5 µM in assay [1] and 0.02 to 0.2 µM in assay [2].

Take `Cn1cc(-c2ccc3c(-c4nc(N[C@H]5CCCNC5)ncc4C(F)(F)F)c[nH]c3c2)c2cnc(C(F)(F)F)cc21` [Compound 320]: the IC50 is 1 to 5 µM in the assay with HCC70 cells (Homo sapiens, HCC70, 72 h); 0.2 to 5 µM in assay [1]; 0.02 to 0.2 µM in assay [2].

In the case of `Nc1ncc2cccc(-c3ccc4c(-c5nc(N[C@H]6CCCNC6)ncc5C(F)(F)F)c[nH]c4c3)c2n1` [Compound 322], the IC50 was 0.1 to 1 µM in the assay on HCC70 cells, 0.2 to 5 µM in assay [1] and under 0.02 µM in assay [2].

Regarding `OCCc1cccc(-c2ccc3c(-c4nc(N[C@H]5CCCNC5)ncc4C(F)(F)F)c[nH]c3c2)c1` [Compound 324], the IC50 in the assay on HCC70 cells was 0.1 to 1 µM; in assay [1] it was 0.2 to 5 µM; in assay [2], 0.02 to 0.2 µM.

Consider `FC(F)(F)c1cnc(N[C@H]2CCCNC2)nc1-c1c[nH]c2cc(-c3ccc4ccncc4c3)ccc12` [Compound 325], for which the IC50 is 0.1 to 1 µM in the assay with HCC70 cells, 0.2 to 5 µM in assay [1] and 0.02 to 0.2 µM in assay [2].

Consider `NS(=O)(=O)c1cccc(-c2ccc3c(-c4nc(N[C@H]5CCCNC5)ncc4C(F)(F)F)c[nH]c3c2)c1` [Compound 326], for which the IC50 in the assay with HCC70 cells was 0.1 to 1 µM; in assay [1] it was 0.2 to 5 µM; in assay [2] it was 0.02 to 0.2 µM.

On to `CCOc1ccccc1-c1ccc2c(-c3nc(NC4CCCNC4)ncc3C(F)(F)F)c[nH]c2c1` (stereo not drawn) [Compound 327], for which the IC50 is 0.1 to 1 µM in the assay on HCC70 cells (Homo sapiens, HCC70, 72 h); 0.2 to 5 µM in assay [1]; 0.02 to 0.2 µM in assay [2].

Regarding `FC(F)(F)c1cnc(N[C@H]2CCCNC2)nc1-c1c[nH]c2cc(-c3ccc4cn[nH]c4c3)ccc12` [Compound 329], the IC50 with HCC70 cells (Homo sapiens, HCC70, 72 h) is 0.1 to 1 µM; in assay [1], 0.2 to 5 µM; in assay [2], 0.02 to 0.2 µM.

On to `NS(=O)(=O)c1ccc(-c2ccc3c(-c4nc(N[C@H]5CCCNC5)ncc4C(F)(F)F)c[nH]c3c2)cc1` [Compound 331], for which the IC50 is 0.1 to 1 µM in the assay with HCC70 cells, 0.2 to 5 µM in assay [1] and 0.02 to 0.2 µM in assay [2].

As to `Cn1ncc2ccc(-c3ccc4c(-c5nc(N[C@H]6CCCNC6)ncc5C(F)(F)F)c[nH]c4c3)cc21` [Compound 337], the results for the IC50 (in the assay with HCC70 cells; in assay [1]; in assay [2]) were 0.1 to 1 µM, 0.2 to 5 µM and 0.02 to 0.2 µM, respectively.
